Measurements taken from US20040110253A1, “Method for identifying MHC-presented peptide epitopes for T cells” (priority 2002, published 2004).
Blank lines part the entries; values can stand above or below the substance they belong to.

Tests used:
B3K-06 TCR = assay: Binding of fluorescent soluble B3K-06 αβTCR to SF9 cells displaying IA^b-peptide (flow cytometry); parameters: species or system mouse
Experimental: (§1) Next fluorescent, soluble αβTCR reagents were prepared for use in flow cytometry to detect insect cells displaying the appropriate MHCII/peptide combination. Fluorescent multivalent versions of the soluble αβTCR's of B3K-06 and YAe-62 bound to insect cells displaying the IA^b-p3K, but not a control MHCII-peptide combination (data not shown).
(§2) Insect cells displaying IA^b-p3K bound the αβTCR reagents very heterogeneously, probably due to heterogeneous expression of IA^b-p3K due to variations in the multiplicity of infection and the lack of synchrony in viral infection and expression. […] In this case, there was a direct correlation between the amount of surface IA^b-p3K expressed by an individual insect cell and the amount of αβTCR bound with cells bearing a particular level of IA^b-p3K binding the αβTCRs uniformly (data not shown). Therefore, comparing the two types of staining gave a useful tool to evaluate the relation between peptide sequence and the strength of αβTCR binding (see below).
(§3) A large number of SF9 insect cells were infected at an MOI of about one with baculovirus carrying the IA^b peptide library. After 3-4 days the cells were analyzed with fluorescent B3K-06 or YAe-62 soluble αβTCR, as described above. Fluorescent cells were sorted and cultured with fresh uninfected SF9 cells to create new infected cells for analysis and an enriched viral stock. This process was repeated 3 to 4 times. In each case, when no clear fluorescent population was apparent, the brightest 1% of the infected cells was sorted. In later rounds, the majority of the cells in a clearly distinguishable fluorescent population were sorted. Infected cells binding the B3K-06 αβTCR were apparent only after two rounds of enrichment but eventually yielded a population with uniform binding (data not shown). Infected cells that bound the YAe-62 αβTCR were detectable even with the initial library of viruses and enriched rapidly to yield a population with more heterogeneous levels of binding to the receptor (data not shown).
(§4) At the time of the final enrichment, single infected cells binding each of αβTCRs were sorted into individual wells of 96 well culture plates containing fresh SF9 cells in order to prepare clonal viral stocks. These stocks were used to infect fresh SF9 cells which were reanalyzed for binding to the appropriate αβTCR as described above. […] The majority of PCR fragments yielded a single unambiguous peptide sequence. These viruses were used to infect SF9 cells that expressed mouse ICAM and B7.1. The infected cells were used as APCs for either the B3K-06 or YAe-62 hybridoma with IL-2 production being a measure of IA^b-peptide recognition. Viruses expressing IA^b-peptide combinations that neither bound to the αβTCR nor stimulated the T cell hybridomas were used as negative controls and virus producing IA^b-p3K was used as the positive control. Results with a few representative virus clones are shown in FIG. 10A and 10B, and a summary of all of the results are shown in Table 1.

YAe-62 hybridoma = assay: IL-2 production by YAe-62 T cell hybridoma in response to IA^b-peptide presenting APCs; assay type: cell-based, mouse
Source text: The mouse T cell hybridoma, referred to as YAe-62, was chosen as a representative of broadly reactive T cells present in mice carrying transgenes and gene knockouts that lead to expression of MHC Class II that are almost completely occupied by a single peptide (Ignatowicz et al., 1996, Cell 84:521-529). The T cell was produced by immunization with p3K bound to IA^b in mice that express IA^b covalently linked to Eα, a dominant IA^b binding peptide derived from the MHC Class II IEα chain. YAe-62 responds to IA^b-p3K, but not to APCs lacking MHC Class II or to the IA^b-pEα APCs from the mouse from which it was derived. YAe-62 is also reactive against many cell types bearing IA^b in the absence of p3K. It also responds to APCs from a variety of mice carrying other alleles of IA. The inventors have postulated that this T cell responds mainly to the evolutionarily conserved regions of the IA molecule with less dependence on the peptide than seen with conventional T cells (Marrack et al., 2001, J. Immunol. 167:617-621). […] From the X-ray crystal structure of IA^b (Liu et al., 2002, supra) enough was known about how peptides bind to this MHC molecule to design a strategy in which the major MHC anchor amino acids of the peptide could be held constant and only five surface exposed amino acids need be varied in the library (FIG. 8).
as §4

B3K-06 hybridoma = assay: IL-2 production by B3K-06 T cell hybridoma in response to IA^b-peptide presenting APCs; assay type: cell-based, mouse
Source text: The hybridoma, B3K-06 was produced from wild-type C57BL/6 mice immunized conventionally with the peptide (Rees et al., 1999, supra). […] Also, as is commonly seen with conventional T cells, the interaction of the αβ TcR of B3K-06 with IA^b-p3K is very sensitive to changes in any of the peptide amino acids exposed on the surface of the IA^b-p3K complex. Mutation of positions Q2, K3, K5, N7 or K8 to alanine virtually eliminates recognition of p3K by B3K-06 (Liu et al., 2002, supra and additional data not shown).
as §4

IA^b = target: T1, IA^b (Mus musculus, UniProt P14434+P14483); conditions: Rees et al., 1999; cited from earlier work
T1 sequence (P14434 24-256): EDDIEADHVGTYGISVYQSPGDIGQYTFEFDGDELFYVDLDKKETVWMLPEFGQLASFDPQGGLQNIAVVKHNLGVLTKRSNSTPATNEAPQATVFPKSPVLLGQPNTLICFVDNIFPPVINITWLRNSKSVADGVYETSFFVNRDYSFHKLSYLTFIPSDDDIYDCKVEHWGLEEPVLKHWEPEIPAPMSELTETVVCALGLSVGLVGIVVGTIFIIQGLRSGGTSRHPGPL
T1 sequence (P14483 28-265): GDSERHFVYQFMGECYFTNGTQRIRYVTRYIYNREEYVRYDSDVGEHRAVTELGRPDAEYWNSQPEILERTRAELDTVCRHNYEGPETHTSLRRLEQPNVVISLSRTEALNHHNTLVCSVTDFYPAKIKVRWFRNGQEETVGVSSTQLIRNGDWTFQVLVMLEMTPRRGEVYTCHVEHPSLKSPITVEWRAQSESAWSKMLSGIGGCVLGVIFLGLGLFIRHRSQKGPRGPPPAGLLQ

YAe-62 TCR = assay: Binding of fluorescent soluble YAe-62 αβTCR to SF9 cells displaying IA^b-peptide (flow cytometry); parameters: species or system mouse
Experimental: as §1, §2, §3, §4

T cell 3DT-52.5 [1] = assay: IL-2 production by T cell 3DT-52.5 in response to LKD8 cells plus synthetic peptide; assay type: cell-based, mouse; conditions: synthetic peptide 100 ug/ml, D^d expressing Tap deficient cell line, twenty four hours
Source text: FIG. 14B is a graph showing IL-2 produced by T cell […] in response to (1) P815 plus a bound unknown self-peptide and 2) LKD8, alone, or in the presence of the library derived peptide, TGPTRWCRL (SEQ ID NO:50), or a peptide derived from the spin protein, AGATRWCRL (SEQ ID NO:51).
DNA from a number of these clones was sequenced through the region encoding the peptide to determine the peptide sequence. Only one sequence was found, a 9mer, TGPTRWCRL (represented by SEQ ID NO:50; the underlined amino acids are in the positions varied in the library). […] A search of the mouse genome for proteins that contained peptides similar to the library peptide yielded a very similar sequence (AGATRWCRL; SEQ ID NO:51) intheprotein, spin(GenBank Accession No. BC011467). The library peptide and the spin peptide were synthesized and tested with a D^d expressing, Tap deficient, cell line for recognition by the original T cell (FIG. 14B). […] In the case of LKD8 the cell line was tested alone or in the presence of 100 ug/ml of the library derived peptide, TGPTRWCRL (SEQ ID NO:50), or a peptide derived from the spin protein, AGATRWCRL (SEQ ID NO:51). After twenty four hours the culture supernatants were assayed for IL-2. Without an added peptide, the D^d on this cell line was not recognized because the Tap deficiency prevents loading of endogenous peptides.

T cell 3DT-52.5 [2] = assay: IL-2 production by T cell 3DT-52.5 in response to infected SF9 cells expressing D^d tethered to peptide; assay type: cell-based, mouse; conditions: infected insect cells expressing D^d bearing the peptide as APCs
Source text: FIG. 14A is a graph showing IL-2 produced by T cell 3DT-52.5 in response to ICAM+/B7+ SF9 cells infected with baculovirus expressing D^d tethered to either pHIV or the αβTCR identified peptide, TGPTRWCRL (SEQ ID NO:50).
To screen the library, soluble a αβTCR were produced from a mouse T cell specific for D^d plus an unknown self-peptide (Endres et al., 1983, J Immunol 131:1656-1662). A multimeric, fluorescent version of the αβTCR was produced as described for MHCII specific αβTCRs. SF9 cells, infected with the library at a multiplicity of infection (MOI) of <1, were analyzed for binding of the fluorescent αβTCR (data not shown). Although no clearly fluorescent population of cells was seen, of those with good surface D^d expression, the 1% of the cells with the brightest fluorescence were sorted and cultured with fresh insect cells to expand the virus. This type of enrichment was repeated six times, producing a clear population of infected cells was detected that bound the αβTCR (data not shown). The infected cells were cloned with fresh insect cells to prepare clonal viral stocks. These stocks were re-tested for encoding a D^d-peptide combination that bound the αβTCR.
DNA from a number of these clones was sequenced through the region encoding the peptide to determine the peptide sequence. […]

[3] = target: IA^b-p3K displayed on baculovirus-infected SF9 insect cells (mouse; baculovirus); assay: flow cytometry, fluorescent multivalent soluble TCR on infected SF9 cells
[4] = target: IA^b-pEα displayed on baculovirus-infected SF9 insect cells (mouse; baculovirus); assay: as above
[5] = target: IA^b-… displayed on baculovirus-infected SF9 insect cells (mouse; baculovirus); assay: as above
[6] = target: IA^b-… (SEQ ID NO:25) displayed on baculovirus-infected SF9 insect cells (mouse; baculovirus); assay: as above
[7] = target: IA^b-… (SEQ ID NO:26) displayed on baculovirus-infected SF9 insect cells (mouse; baculovirus); assay: as above
[8] = IA^b-peptide displayed on baculovirus-infected SF9 cells, fluorescent soluble αβTCR
[9] = insect cells displaying IA^b-peptide

Substance: F E A Q K A K A N K A V (FEAQKAKANKAV; synthetic peptide motif) [p3K, positive control]
B3K-06 TCR Binding (% of p3K) (B3K-06 TCR; [8]): 100.0 % of p3K
binding of B3K-06 αβTCR to IA^b-peptide complex (in words) (B3K-06 TCR; [9]): bound
response of YAe-62 to IA^b-peptide APCs (YAe-62 hybridoma; APCs bearing IA^b-peptide): responds
IL-2 Production (units/ml) (YAe-62 hybridoma; YAe-62 hybridoma, infected SF9 cells expressing mouse ICAM and B7.1 as APCs): 205 units/ml
IL-2 Production (units/ml) (B3K-06 hybridoma; B3K-06 hybridoma, infected SF9 cells expressing mouse ICAM and B7.1 as APCs): 3500 units/ml
response of B3K-06 to IA^b-expressing APCs plus peptide (B3K-06 hybridoma; IA^b-expressing APCs, data not shown): responds to IA^b-expressing APCs in the presence, but not in the absence of the peptide
binding of peptide to IA^b (IA^b): binds well
YAe-62 TCR Binding (% of p3K) (YAe-62 TCR; [8]): 100.0 % of p3K
binding of YAe-62 αβTCR to IA^b-peptide complex (in words) (YAe-62 TCR; [9]): bound

Substance: TGPTRWCRL (synthetic peptide motif) [9mer D^d library derived peptide identified with the αβTCR of 3DT-52.5]
restoration of the ability of LKD8 cells to stimulate the T cells (IL-2) (T cell 3DT-52.5 [1]): restored the ability of the cells to stimulate the T cells
stimulation of IL-2 production from the original T cell donor of the αβTCR (T cell 3DT-52.5 [2]): specifically stimulated IL-2 production

TCR Binding (% of p3K) [3]: 100 % of p3K
TCR Binding (% of p3K) [4]: 0.4 % of p3K
TCR Binding (% of p3K) [5]: 66.8 % of p3K
Substance: soluble αβTCR of B3K-06, fluorescent multivalent version

TCR Binding (% of p3K) [3]: 100 % of p3K
TCR Binding (% of p3K) [4]: 0.3 % of p3K
TCR Binding (% of p3K) [6]: 58.3 % of p3K
TCR Binding (% of p3K) [7]: 54.9 % of p3K
Substance: soluble αβTCR of YAe-62, fluorescent multivalent version
